Laboratory results reported in PMC8022858, “Discovery of bone morphogenetic protein 7-derived peptide sequences that attenuate the human osteoarthritic chondrocyte phenotype” (Molecular Therapy. Methods & Clinical Development, 2021).

Test system: human OA infra-patellar fat pad (IPFP) explants
Assay: PGE2 levels in culture supernatant of IPFP explants
Assay type: cell-based
Conditions: n = 5 donors, 24 h, relative to control (Figure 6E)
Description: Figure 6 Peptide p[63−82] activity on OA knee joint tissues Human OA knee joint tissues were cultured for 24 h in the presence of BMP7, peptide p[63−82], or the scrambled version of peptide p[63−82] and compared to control conditions. (A) Cartilage tissues (n = 7 individual donors) were exposed to shown conditions and analyzed for COL2A1, COL10A1, and COX-2 mRNA expression by quantitative real-time PCR (normalized for 28S rRNA expression and relative to control conditions). (B) GAG release in medium from cartilage tissues (n = 5 individual donors) was determined, and data were calculated relative to the control condition. (C) PGE2 levels in culture supernatant from synovium (n = 5 donors). (D) PGE2 levels in culture supernatant from cartilage tissues from (B) (n = 5 donors). (E) PGE2 levels in culture supernatant from IPFP (n = 5 donors). (F) PGE2 levels in culture supernatant from the meniscus. Synovium, IPFP, and meniscus tissues were from the same 5 donors as the cartilage tissues in (B) and (C). PGE2 levels in conditions were calculated relative to controls for each donor. In graphs, error bars represent mean ± SEM; data are presented relative to the control condition for each time point. Statistical differences (unpaired two-tailed Student’s t test) were calculated to control condition: ∗p < 0.05, ∗∗p < 0.01, and ∗∗∗p < 0.001. […]

| Substance | PGE2 levels from IPFP explants |
| --- | --- |
| BMP7: full-length recombinant bone morphogenetic protein 7 (R&D Systems), used at 1 nM | reduced |
| H-AAYYSEGESAFPLNSYMNAT-OH [p[63−82]] | reduced |
